Laboratory results as given in US20110200693A1, “INCREASING THE EFFICIENCY OF UTILIZATION OF INGESTED CREATINE” (priority 2007, published 2011).

What was measured:
[1] = Plasma creatine kinetics after a single ingestion of 2 g creatine (one-open compartmental model); format: in vivo, human; conditions: 2 g creatine oral, not influenced by the form ingested
Description: The health status questionnaire was filled in again.
Venous blood was collected on heparin as an anticoagulant. The tubes were placed immediately on ice and centrifuged at 3000 g for 6 min at 4° C. […] NaOH 0.1M (90 μL) was added to supernatant (300 μL) to obtain a pH value of about 7.8. Samples were stored at −20° C.
Using a Marquardt algorithm, all kinetics were fitted with the following equation: […]
This equation corresponds to a one-open compartmental model in which ka, kel and tlag are the primary parameters. Knowing their value, new kinetic parameters of plasma creatine were calculated:
Since the bioavailability (F) may not be measured, only the apparent volume of distribution and the apparent clearance can be estimated:
Vd: the apparent volume of distribution (Vd=V/F, L)

[2] = doses from 8 g/d to 21 g/d during 1 to 14 days; cited from earlier work

Q: What does the source list for `CN(CC(=O)O)C(=N)N` [creatine]?
A: apparent volume of distribution relative to body mass [1]: about 75 % of body mass; fraction of ingested creatine excreted in urine [2]: 33 to 77 % of the original dose
